Measurements published in patent US20210283139A1, “BIFUNCTIONAL MOLECULES FOR TARGETING UCHL5” (AMPHISTA THERAPEUTICS LTD, priority 2018, published 2021).

Key:
Type in all cases: cell-based
[1] = biological target: T1, Brd3 (Homo sapiens, UniProt Q15059); assay: Time-dependent BET degradation, immunoblot, HeLa cells; parameters: endogenous in cells; host or cells: HeLa; details: Brd3, 1 μM, timecourse 0-8 h
Protocol: (§1) Cell culture. HeLa (CCL-2) and HEK293 (CRL-1573) cells were purchased from ATCC and cultured in DMEM medium (Gibco) supplemented with 10% FBS, 100 μg/mL penicillin/streptomycin and L-glutamine. Cells were grown at 37° C. and 5% CO2, and were kept no longer than 30 passages. All cell lines were routinely tested for mycoplasma contamination using MycoAlert kit from Lonza.
(§2) Immunoblotting. proteins were separated by SDS-PAGE on NuPage 4-12% Bis-Tris gels, followed by transfer to Amersham Protran 0.45 NC nitrocellulose membrane (GE Healthcare) using wet transfer. Membranes were blocked using 5% w/v milk in Tris-buffered saline (TBS) with 0.1% Tween-20. Blots were probed (overnight at 4° C.) using anti-Brd2 (Abcam ab139690, 1:2,000 dilution), anti-Brd3 (Abcam ab50818, 1:500 dilution), and anti-Brd4 (Abcam ab128874, 1:1,000 dilution) primary antibodies, as appropriate. The next day, blots were washed with TBST and incubated (1 hr at RT) with anti-Tubulin hFAB-rhodamine (BioRad, 12004166) primary antibody, and either anti-rabbit IRDye 800CW (Licor 1:10,000 dilution) or anti-mouse IRDye 800CW (Licor 1:10,000 dilution) secondary antibody. Blots were developed using a Bio-Rad ChemiDoc MP Imaging System, and band quantification was performed using Image Studio software (LiCor). Band intensities were normalized to the tubulin loading control and reported as % of the average 0.1% DMSO vehicle intensity. Degradation data was plotted and analysed using Prism (Graphpad, version 8).
(§3) HeLa (3×10^5) and HEK293 (0.5×10^6) cells were seeded in standard 6-well plates (2 mL medium) overnight before treatment with compounds at 1 μM concentration, with a final DMSO concentration of 0.1% v/v. After incubation for the desired time (0-8 h), cells were washed with DPBS (Gibco) and lysed using 85 μL RIPA buffer (Sigma-Aldrich) supplemented with cOmplete Mini EDTA-free protease inhibitor cocktail (Roche) and benzonase. Lysates were clarified by centrifugation (20,000 g, 10 min, 4° C.) and the total protein content of the supernatant was quantified using a Bradford colorimetric assay. Samples were prepared using equal amounts of total protein and LDS sample buffer (Invitrogen).
(§4) Representative blots in FIG. 4 show depletion of Brd2, Brd3 and Brd4 protein levels following 1 μM treatment at various time points with representative compounds. Band intensities were normalized to the β-tubulin loading control and reported as % of the average 0.1% DMSO vehicle intensity, with each point representing mean±SEM of two independent experiments (n=2). Degradation data was plotted and analysed using Prism (Graphpad, version 8).
(§5) T½ (h) is the time required to deplete 50% of the protein relative to DMSO

[2] = biological target: T2, Brd2 (Homo sapiens, UniProt P25440); assay: as above; parameters: endogenous in cells; host or cells: HeLa; details: Brd2, 1 μM, timecourse 0-8 h
Protocol: as §1, §2, §3, §4, §5

[3] = biological target: T3, Brd4 (L) (Homo sapiens, UniProt O60885); assay: Concentration-dependent BET degradation, immunoblot, HeLa cells; details: 6 h treatment, 1 nM-10 μM; for Dmax: read-out: Dmax (%) maximum degradation observed
T3 construct: endogenous in cells; host or cells: HEK293, HeLa
Protocol: as §1, §2
as §3, with “(5×10^5)” for “(3×10^5)”, “(1×10^6)” for “(0.5×10^6)”, “the desired concentration (1 nM-10 μM),” for “1 μM concentration,”, “6 h treatment time,” for “incubation for the desired time (0-8 h),”, “(20,000g,” for “(20,000 g,”, “(Invitrogen.” for “(Invitrogen).”
(§6) Representative blots in FIG. 3 show depletion of Brd2, Brd3 and Brd4 protein levels following treatment with increasing concentrations of representative compounds. Band intensities were normalized to the β-tubulin loading control and reported as % of the average 0.1% DMSO vehicle intensity, with each point representing mean±SEM of two independent experiments (n=2). Degradation data was plotted and analysed using Prism (Graphpad, version 8)

[4] = biological target: T4, Brd4 (S) (Homo sapiens, UniProt O60885); assay: as above; details: 6 h treatment, 1 nM-10 μM; for Dmax: read-out: Dmax (%) maximum degradation observed
T4 construct: endogenous in cells; host or cells: HEK293, HeLa
Protocol: as §1, §2
as §3, with “(5×10^5)” for “(3×10^5)”, “(1×10^6)” for “(0.5×10^6)”, “the desired concentration (1 nM-10 μM),” for “1 μM concentration,”, “6 h treatment time,” for “incubation for the desired time (0-8 h),”, “(20,000g,” for “(20,000 g,”, “(Invitrogen.” for “(Invitrogen).”
as §6

[5] = biological target: T3, Brd4 (L); assay: Concentration-dependent BET degradation, immunoblot, HEK293 cells; details: 6 h treatment, 1 nM-10 μM; for Dmax: read-out: Dmax (%) maximum degradation observed
Protocol: as §1, §2
as §3, with “(5×10^5)” for “(3×10^5)”, “(1×10^6)” for “(0.5×10^6)”, “the desired concentration (1 nM-10 μM),” for “1 μM concentration,”, “6 h treatment time,” for “incubation for the desired time (0-8 h),”, “(20,000g,” for “(20,000 g,”, “(Invitrogen.” for “(Invitrogen).”
as §6

[6] = biological target: T4, Brd4 (S); assay: as above; details: 6 h treatment, 1 nM-10 μM; for Dmax: read-out: Dmax (%) maximum degradation observed
Protocol: as §1, §2
as §3, with “(5×10^5)” for “(3×10^5)”, “(1×10^6)” for “(0.5×10^6)”, “the desired concentration (1 nM-10 μM),” for “1 μM concentration,”, “6 h treatment time,” for “incubation for the desired time (0-8 h),”, “(20,000g,” for “(20,000 g,”, “(Invitrogen.” for “(Invitrogen).”
as §6

[7] = biological target: T3, Brd4 (L); assay: Time-dependent BET degradation, immunoblot, HeLa cells; parameters: dose or concentration left out as unconfirmed; details: timecourse 0-8 h
Protocol: as §1, §2, §3, §4, §5

[8] = biological target: T4, Brd4 (S); assay: as above; parameters: dose or concentration left out as unconfirmed; details: timecourse 0-8 h
Protocol: as §1, §2, §3, §4, §5

[9] = biological target: T1, Brd3; assay: Time-dependent BET degradation, immunoblot, HEK293 cells; parameters: endogenous in cells; host or cells: HEK293; details: HEK293, Brd3, 1 μM, timecourse 0-8 h
Protocol: as §1, §2, §3, §4, §5

[10] = biological target: T2, Brd2; assay: as above; parameters: endogenous in cells; host or cells: HEK293; details: HEK293, Brd2, 1 μM, timecourse 0-8 h
Protocol: as §1, §2, §3, §4, §5

[11] = biological target: T1, Brd3; assay: Concentration-dependent BET degradation, immunoblot, HEK293 cells; parameters: endogenous in cells; host or cells: HEK293; details: HEK293, Brd3, 6 h treatment, 1 nM-10 μM; for Dmax: read-out: Dmax (%) maximum degradation observed
Protocol: as §1, §2
as §3, with “(5×10^5)” for “(3×10^5)”, “(1×10^6)” for “(0.5×10^6)”, “the desired concentration (1 nM-10 μM),” for “1 μM concentration,”, “6 h treatment time,” for “incubation for the desired time (0-8 h),”, “(20,000g,” for “(20,000 g,”, “(Invitrogen.” for “(Invitrogen).”
as §6

[12] = biological target: T2, Brd2; assay: as above; parameters: endogenous in cells; host or cells: HEK293; details: HEK293, Brd2, 6 h treatment, 1 nM-10 μM; for Dmax: read-out: Dmax (%) maximum degradation observed
Protocol: as §1, §2
as §3, with “(5×10^5)” for “(3×10^5)”, “(1×10^6)” for “(0.5×10^6)”, “the desired concentration (1 nM-10 μM),” for “1 μM concentration,”, “6 h treatment time,” for “incubation for the desired time (0-8 h),”, “(20,000g,” for “(20,000 g,”, “(Invitrogen.” for “(Invitrogen).”
as §6

[13] = biological target: T3, Brd4 (L); assay: Time-dependent BET degradation, immunoblot, HEK293 cells; parameters: dose or concentration left out as unconfirmed; details: timecourse 0-8 h
Protocol: as §1, §2, §3, §4, §5

[14] = biological target: T4, Brd4 (S); assay: as above; parameters: dose or concentration left out as unconfirmed; details: timecourse 0-8 h
Protocol: as §1, §2, §3, §4, §5

[15] = biological target: T1, Brd3; assay: Concentration-dependent BET degradation, immunoblot, HeLa cells; parameters: endogenous in cells; host or cells: HeLa; details: Brd3, 6 h treatment, 1 nM-10 μM; for Dmax: read-out: Dmax (%) maximum degradation observed
Protocol: as §1, §2
as §3, with “(5×10^5)” for “(3×10^5)”, “(1×10^6)” for “(0.5×10^6)”, “the desired concentration (1 nM-10 μM),” for “1 μM concentration,”, “6 h treatment time,” for “incubation for the desired time (0-8 h),”, “(20,000g,” for “(20,000 g,”, “(Invitrogen.” for “(Invitrogen).”
as §6

[16] = biological target: T2, Brd2; assay: as above; parameters: endogenous in cells; host or cells: HeLa; details: Brd2, 6 h treatment, 1 nM-10 μM; for Dmax: read-out: Dmax (%) maximum degradation observed
Protocol: as §1, §2
as §3, with “(5×10^5)” for “(3×10^5)”, “(1×10^6)” for “(0.5×10^6)”, “the desired concentration (1 nM-10 μM),” for “1 μM concentration,”, “6 h treatment time,” for “incubation for the desired time (0-8 h),”, “(20,000g,” for “(20,000 g,”, “(Invitrogen.” for “(Invitrogen).”
as §6

[17] = system: MV4-11 cells; assay: Anti-proliferative effect, CellTiter-Glo assay; details: MV4-11, CellTiter-Glo, 72 h incubation, 5 μM and below
Protocol: The anti-proliferative effects of representative compounds were measured using the CellTiter-Glo assay (Promega). MV4-11 cells were incubated in a sterile, white, clear-bottomed 384-well cell-culture microplate (Greiner Bio-one), at 2× concentration in RPMI media and a volume of 25 μl. The next day, test compounds were serially diluted in RPMI media to 2× concentration, then added to cells to make a final volume of 50 μl. After a 72 h incubation 25 μl of CellTiter-Glo reagent was added to each well. Following 15 minute incubation the luminescence signal was read on a Pherastar FS. The final concentration of assay components are as follows: 3×10^5 cells/mL, 0.05% DMSO, 5 μM and below compound. Data (FIG. 11) was processed and dose-response curves generated using Prism 8 (Graphpad).

T2 sequence (P25440 whole entry): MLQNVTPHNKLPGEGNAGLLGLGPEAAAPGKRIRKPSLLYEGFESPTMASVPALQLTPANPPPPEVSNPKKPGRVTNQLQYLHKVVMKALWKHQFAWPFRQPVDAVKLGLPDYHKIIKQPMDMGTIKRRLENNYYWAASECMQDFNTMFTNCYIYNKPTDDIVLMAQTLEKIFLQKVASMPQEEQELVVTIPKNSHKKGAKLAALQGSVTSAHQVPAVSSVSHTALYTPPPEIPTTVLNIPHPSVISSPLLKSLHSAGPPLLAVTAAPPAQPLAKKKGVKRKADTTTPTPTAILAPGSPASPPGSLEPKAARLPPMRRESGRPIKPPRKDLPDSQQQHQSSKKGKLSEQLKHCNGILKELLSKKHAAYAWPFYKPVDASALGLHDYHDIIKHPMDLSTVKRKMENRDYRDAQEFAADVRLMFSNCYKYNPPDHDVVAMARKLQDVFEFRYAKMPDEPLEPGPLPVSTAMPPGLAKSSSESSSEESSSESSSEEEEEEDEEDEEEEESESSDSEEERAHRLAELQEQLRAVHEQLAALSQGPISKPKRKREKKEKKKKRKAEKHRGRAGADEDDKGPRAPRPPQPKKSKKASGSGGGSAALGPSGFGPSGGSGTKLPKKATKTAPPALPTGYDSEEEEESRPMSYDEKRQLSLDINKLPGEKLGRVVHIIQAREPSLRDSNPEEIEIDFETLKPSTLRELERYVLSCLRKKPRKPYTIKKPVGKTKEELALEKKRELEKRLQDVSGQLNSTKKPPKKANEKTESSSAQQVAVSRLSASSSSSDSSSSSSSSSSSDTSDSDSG
T1 sequence (Q15059 whole entry): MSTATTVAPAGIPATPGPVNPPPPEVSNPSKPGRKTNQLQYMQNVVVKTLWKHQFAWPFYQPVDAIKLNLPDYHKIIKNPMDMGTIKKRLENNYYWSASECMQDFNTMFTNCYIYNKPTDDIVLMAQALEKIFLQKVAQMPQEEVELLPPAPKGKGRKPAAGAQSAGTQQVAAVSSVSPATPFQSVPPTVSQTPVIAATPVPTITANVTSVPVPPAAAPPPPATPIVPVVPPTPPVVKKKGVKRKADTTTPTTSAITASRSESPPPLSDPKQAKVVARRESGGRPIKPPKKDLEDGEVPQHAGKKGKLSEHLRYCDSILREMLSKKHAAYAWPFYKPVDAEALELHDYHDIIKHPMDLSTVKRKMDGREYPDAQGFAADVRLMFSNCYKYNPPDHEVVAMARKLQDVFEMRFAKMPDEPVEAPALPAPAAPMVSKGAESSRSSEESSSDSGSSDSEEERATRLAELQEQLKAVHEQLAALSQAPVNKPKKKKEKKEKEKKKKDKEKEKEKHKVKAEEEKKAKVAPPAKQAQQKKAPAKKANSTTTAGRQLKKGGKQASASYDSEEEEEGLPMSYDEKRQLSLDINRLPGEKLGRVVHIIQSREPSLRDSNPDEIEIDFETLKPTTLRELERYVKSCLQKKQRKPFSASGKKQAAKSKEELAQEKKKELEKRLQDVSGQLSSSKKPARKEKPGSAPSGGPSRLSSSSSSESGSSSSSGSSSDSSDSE

SMILES	Dmax at 1 µM [1] [%]	Dmax at 1 µM [2] [%]	DC50 [3] [nM]	Dmax [3] [%]	DC50 [4] [nM]	Dmax [4] [%]	DC50 [5] [nM]	Dmax [5] [%]	DC50 [6] [nM]	Dmax [6] [%]	Dmax [7] [%]	Dmax [8] [%]	Dmax at 1 µM [9] [%]	Dmax at 1 µM [10] [%]	DC50 [11] [nM]	Dmax [11] [%]	DC50 [12] [nM]	Dmax [12] [%]	Dmax [15] [%]	Dmax [16] [%]	also measured
CCC[C@H](NC(=O)/C(C#N)=C/c1cccc(Br)n1)c1ccccc1 [Degrasyn, reference compound]																					cytotoxicity profile (anti-proliferative effect) [17]: significantly less cytotoxicity
CCCC(NC(=O)/C(C#N)=C/c1cccc(Br)n1)c1ccc(OCC=NOCC(=O)NCCOCCNC(=O)c2ccc3c(c2)[C@H](Nc2ccc(Cl)cc2)C[C@H](C)N3C(C)=O)cc1 (stereo partly drawn) [Example 05IB1]	100	100	51 to 500	26 to 50	≤ 50	≥ 71	≤ 50	≥ 71	≤ 50	≥ 71	100	100	100	100	≤ 50	≥ 71	≤ 50	51 to 70	26 to 50	≤ 25	Dmax [13]: 100%; Dmax [14]: 100%; DC50 [15]: ≤ 50 nM; DC50 [16]: 51 to 500 nM

Now from value to compound, other results behind:

Dmax at 1 µM [1] [%]	Dmax at 1 µM [2] [%]	DC50 [3] [nM]	Dmax [3] [%]	DC50 [4] [nM]	Dmax [4] [%]	DC50 [5] [nM]	Dmax [5] [%]	DC50 [6] [nM]	Dmax [6] [%]	Dmax [7] [%]	Dmax [8] [%]	Dmax at 1 µM [9] [%]	Dmax at 1 µM [10] [%]	DC50 [11] [nM]	Dmax [11] [%]	DC50 [12] [nM]	Dmax [12] [%]	Dmax [15] [%]	Dmax [16] [%]	SMILES	also measured
100	97	≤ 50	51 to 70	51 to 500	≥ 71	≤ 50	≥ 71	≤ 50	≥ 71	100	100	90	82	51 to 500	≥ 71	51 to 500	51 to 70	≥ 71	≥ 71	CCCC(NC(=O)/C(C#N)=C/c1nc(Cl)ccc1Cl)c1ccc(OCCOCCOCCOCCOCCOCCOCCNC(=O)c2ccc(-c3ccc4c(c3)[C@H](Nc3ccc(Cl)cc3)C[C@H](C)N4C(C)=O)cc2)cc1 (stereo partly drawn) [Example 05IB10]	Dmax [13]: 100%; Dmax [14]: 99%; DC50 [15]: 51 to 500 nM; DC50 [16]: ≤ 50 nM
			≤ 25		≤ 25		≤ 25		26 to 50						≤ 25		≤ 25	26 to 50	≤ 25	CCCC(NC(=O)C(C#N)Cc1cccc(Br)n1)c1ccc(OCCOCCOCCOCCOCCOCCOCCNC(=O)c2ccc(-c3ccc4c(c3)[C@H](Nc3ccc(Cl)cc3)C[C@H](C)N4C(C)=O)cc2)cc1 (stereo partly drawn) [Example 05IB12]	
93	50	51 to 500	≥ 71	51 to 500	≥ 71	≤ 50	≥ 71	≤ 50	≥ 71	67	67	100	76	51 to 500	≥ 71	51 to 500	51 to 70	26 to 50	26 to 50	CCCC(NC(=O)/C(C#N)=C/c1cccc(Br)n1)c1ccc(OCC=NOCC(=O)NCCOCCOCCOCCNC(=O)c2ccc3c(c2)[C@H](Nc2ccc(Cl)cc2)C[C@H](C)N3C(C)=O)cc1 (stereo partly drawn) [Example 05IB2]	Dmax [13]: 100%; Dmax [14]: 100%; DC50 [15]: 51 to 500 nM; DC50 [16]: 51 to 500 nM
